IC50 and MIC data for 20 compounds are collected here from patent publication US20210309658A1, “ARYL COMPOUNDS FOR THE TREATMENT AND PROPHYLAXIS OF BACTERIAL INFECTION” (Hoffmann-La Roche Inc., priority 2018, published 2021).

Common to all, as to type: cell-based
One experiment concerns E. coli (BW25113). The experiment in a line: 50% growth inhibitory concentration (IC50) determination assay, E. coli. Particulars: Escherichia coli, read-out: IC50 (μM) E. coli K12 BW25113. As for the experimental part:
(§1) The in vitro antimicrobial activity of the compounds against E. coli (BW25113, obtained from Coli Genetic Stock Center, #7636) and K. pneumoniae (ATCC10031) was determined according to the following procedure:
(§2) The assay used a 10-points Iso-Sensitest broth medium to measure quantitatively the in vitro activity of the compounds against E. coli BW25113 and K. pneumoniae ATCC 10031.
(§3) Stock compounds in DMSO were serially two-fold diluted (range from 50 to 0.097 μM final concentration) in 384 wells microtiter plates and inoculated with 49 μL the bacterial suspension in Iso-Sensitest broth medium to have a final cell concentration of ˜5×10^5 CFU/mL in a final volume/well of 50 μL/well. Microtiter plates were incubated at 35±2° C.
(§4) Bacterial cell growth was determined with the measurement of optical density at λ=600 nm each 20 minutes over a time course of 16 h.
(§5) Growth inhibition was calculated during the logarithmic growth of the bacterial cells with determination of the concentration inhibiting 50% (IC50) of the growth.

For experiment [1], the system named is K. pneumoniae (ATCC10031). The experiment in a line: 50% growth inhibitory concentration (IC50) determination assay, K. pneumoniae. The settings on record: Klebsiella pneumoniae, read-out: IC50 (μM) K. pneumoniae ATCC10031. As for the experimental part:
as §1, §2, §3, §4, §5

Another experiment concerns E. coli (ATCC 25922). The experiment in a line: Minimal Inhibitory Concentration (MIC) assay. The settings on record: Escherichia coli, ATCC25922; CAMHB, 20 hours at 35° C.; read-out: MIC (μg/mL) E. coli ATCC 25922. As for the experimental part: The in vitro potency of compounds to inhibit E. coli (ATCC 25922) growth was assessed by MIC (Minimal Inhibitory Concentration) assay. Samples were prepared from 10 mM DMSO stock solutions. After serial 2-fold dilution in DMSO in a master plate (Greiner, Cat No: 651201), 180 μL sterile distilled water was added to 20 μL each aliquot of the samples. Then 10 μL diluted compounds were transferred into a new assay plate (Costar, 3599).
The growth medium […] Mueller Hinton Broth (CAMHB) was prepared by adding the 20 mg per liter CaCl2 and 20 mg per liter MgCl2 into the MHB medium (Jianglai Company, sterilized).
Vials of each of the test microorganisms were maintained frozen in the vapor phase of a liquid nitrogen freezer. Took out the bacteria E. coli ATCC 25922 (KWIKSTIK, 0335K) from liquid nitrogen freezer, thawed it in room temperature, and diluted the bacterial in the CAMHB medium to achieve a final inoculum of 5×10^5 CFU/mL, 90 μL CAMHB with bacteria was dispensed to the assay plate and pipetted 5 times.
Then the assay plates were incubated for 20 hours at 35° C. in ambient air. Following incubation, the MIC (μg/mL), the lowest concentration of drug that inhibits visible growth of the microorganism was read and recorded throw the microscope.

The mark [2] stands for this setting: BW25113, growth inhibition, Iso-Sensitest broth, OD 600 nm over 16 h.
Where [3] appears, read: ATCC10031, growth inhibition, Iso-Sensitest broth, OD 600 nm over 16 h, * = detection limit.

Converted amounts (≈) assume the structure as drawn. Read-outs that look alike come from different tables or passages of the source.

Consider `CCNc1cc(F)cc2c1[nH]c1ncc(-c3cncnc3)c(-n3ccc(C(F)(F)F)n3)c12` [Example 1.12, N-Ethyl-6-fluoro-3-pyrimidin-5-yl-4-[3-(trifluoromethyl)pyrazol-1-yl]-9H-pyrido[2,3-b]indol-8-amine], for which the IC50 in the experiment on E. coli (BW25113) (setting [2]) is 0.536 µM; in experiment [1] (setting [3]) it was no more than 0.098 µM. For the same compound, in the experiment on E. coli (ATCC 25922), the MIC amounted to 0.259 µg/mL (≈ 0.587 µM).

Consider `CCNc1cc(F)cc2c1[nH]c1ncc(-c3cnc4ccnn4c3)c(-n3ccc(C(F)(F)F)n3)c12` [Example 1.19, N-Ethyl-6-fluoro-3-pyrazolo[1,5-a]pyrimidin-6-yl-4-[3-(trifluoromethyl)pyrazol-1-yl]-9H-pyrido[2,3-b]indol-8-amine], for which the IC50 in the experiment on E. coli (BW25113) (setting [2]) was determined as 0.739 µM; in experiment [1] (setting [3]), 0.196 µM. The MIC in the experiment with E. coli (ATCC 25922) is 0.281 µg/mL (≈ 0.585 µM).

On to `CCNc1cc(F)cc2c1[nH]c1ncc(-c3cncc(C#N)c3)c(-n3cc(CO)c(C(F)(F)F)n3)c12` [Example 5.01, 5-[8-(ethylamino)-6-fluoro-4-[4-(hydroxymethyl)-3-(trifluoromethyl)pyrazol-1-yl]-9H-pyrido[2,3-b]indol-3-yl]pyridine-3-carbonitrile], for which the IC50 with E. coli (BW25113) (setting [2]) was 0.971 µM; in experiment [1] (setting [3]), no more than 0.098 µM.

Regarding `CCNc1cc(F)cc2c1[nH]c1ncc(-c3cncc(C(=O)NC4(COC)CC4)c3)c(-n3ccc(C(F)(F)F)n3)c12` [Example 3.07, 5-[8-(ethylamino)-6-fluoro-4-[3-(trifluoromethyl)pyrazol-1-yl]-9H-pyrido[2,3-b]indol-3-yl]-N-[1-(methoxymethyl)cyclopropyl]pyridine-3-carboxamide], the MIC with E. coli (ATCC 25922) is 0.767 µg/mL (≈ 1.35 µM).

In the case of `CCNc1cc(F)cc2c1[nH]c1ncc(-c3cnc(O[C@H]4CCNC4)nc3)c(-n3ccc(C(F)(F)F)n3)c12` [Example 1.56, N-ethyl-6-fluoro-3-[2-[(3S)-pyrrolidin-3-yl]oxypyrimidin-5-yl]-4-[3-(trifluoromethyl)pyrazol-1-yl]-9H-pyrido[2,3-b]indol-8-amine], the IC50 in the experiment with E. coli (BW25113) (BW25113, 16 h) is 1 µM; in experiment [1] (ATCC10031, 16 h), no more than 0.098 µM.

As for `CCNc1cc(F)cc2c1[nH]c1ncc(-c3cnc(OC)nc3)c(-n3ccc(C(F)(F)F)n3)c12` [Example 1.04, N-Ethyl-6-fluoro-3-(2-methoxypyrimidin-5-yl)-4-[3-(trifluoromethyl)pyrazol-1-yl]-9H-pyrido[2,3-b]indol-8-amine], the values for the concentration for half-maximal inhibition (IC50) (with E. coli (BW25113) (setting [2]); in experiment [1] (setting [3])) were 1.56 µM and 0.13 µM, respectively. The MIC in the experiment on E. coli (ATCC 25922) came to 0.552 µg/mL (≈ 1.17 µM).

Regarding `CCNc1cc(F)cc2c1[nH]c1ncc(-c3cnc(NCCOC)nc3)c(-n3ccc(C(F)(F)F)n3)c12` [Example 1.13, N-Ethyl-6-fluoro-3-[2-(2-methoxyethylamino)pyrimidin-5-yl]-4-[3-(trifluoromethyl)pyrazol-1-yl]-9H-pyrido[2,3-b]indol-8-amine], the IC50 in the experiment with E. coli (BW25113) (setting [2]) is 1.77 µM; in experiment [1] (setting [3]), 0.287 µM.

Regarding `CCNc1cc(F)cc2c1[nH]c1ncc(-c3cnc(NC4CCOC4)nc3)c(-n3ccc(C(F)(F)F)n3)c12` (centres unmarked) [Example 1.25, N-Ethyl-6-fluoro-3-[2-(tetrahydrofuran-3-ylamino)pyrimidin-5-yl]-4-[3-(trifluoromethyl)pyrazol-1-yl]-9H-pyrido[2,3-b]indol-8-amine], in the experiment on E. coli (ATCC 25922), the MIC turned out to be 0.751 µg/mL (≈ 1.43 µM).

Regarding `CCNc1cc(F)cc2c1[nH]c1ncc(-c3cncc(CO)c3)c(-n3ccc(C(F)(F)F)n3)c12` [Example 1.36, [5-[8-(Ethylamino)-6-fluoro-4-[3-(trifluoromethyl)pyrazol-1-yl]-9H-pyrido[2,3-b]indol-3-yl]-3-pyridyl]methanol], the half-inhibitory concentration (IC50) is 0.928 µM with E. coli (BW25113) (setting [2]) and no more than 0.098 µM in experiment [1] (setting [3]).

With `CCNc1cc(F)cc2c1[nH]c1ncc(-c3cncc(Cc4nnc(C)o4)c3)c(-n3ccc(C(F)(F)F)n3)c12` [Example 1.58, N-ethyl-6-fluoro-3-[5-[(5-methyl-1,3,4-oxadiazol-2-yl)methyl]-3-pyridyl]-4-[3-(trifluoromethyl)pyrazol-1-yl]-9H-pyrido[2,3-b]indol-8-amine], the IC50 is 1.52 µM with E. coli (BW25113) (setting [2]) and no more than 0.098 µM in experiment [1] (setting [3]).

For the compound `CCc1ncc(-c2cnc3[nH]c4c(NC)cc(F)cc4c3c2-n2ccc(C(F)(F)F)n2)cn1` [Example 1.47, 3-(2-Ethylpyrimidin-5-yl)-6-fluoro-N-methyl-4-[3-(trifluoromethyl)pyrazol-1-yl]-9H-pyrido[2,3-b]indol-8-amine], the IC50 in the experiment on E. coli (BW25113) (setting [2]) worked out at 1.29 µM; in experiment [1] (setting [3]) it was 0.105 µM.

With `CNc1cc(F)cc2c1[nH]c1ncc(-c3cnc(OC)nc3)c(-n3ccc(C(F)(F)F)n3)c12` [Example 1.02, 6-Fluoro-3-(2-methoxypyrimidin-5-yl)-N-methyl-4-[3-(trifluoromethyl)pyrazol-1-yl]-9H-pyrido[2,3-b]indol-8-amine], the values for the IC50 (with E. coli (BW25113) (setting [2]); in experiment [1] (setting [3])) were 1.62 µM and 0.108 µM, respectively.

`CCNc1cc(F)cc2c1[nH]c1ncc(-c3cnc(N4CCNCC4)nc3)c(-n3ccc(C(F)(F)F)n3)c12` [Example 1.52, N-ethyl-6-fluoro-3-(2-piperazin-1-ylpyrimidin-5-yl)-4-[3-(trifluoromethyl)pyrazol-1-yl]-9H-pyrido[2,3-b]indol-8-amine]: the IC50 in the experiment on E. coli (BW25113) (setting [2]) came to 1.22 µM; in experiment [1] (setting [3]) it was 0.146 µM.

Regarding `CCNc1cc(F)cc2c1[nH]c1ncc(-c3cncc(C#N)c3)c(-n3cc(C(N)=O)c(C(F)(F)F)n3)c12` [Example 4.01, 1-(3-(5-Cyanopyridin-3-yl)-8-(ethylamino)-6-fluoro-9H-pyrido[2,3-b]indol-4-yl)-3-(trifluoromethyl)-1H-pyrazole-4-carboxamide], the IC50 in the experiment on E. coli (BW25113) (setting [2]) was 1.74 µM; in experiment [1] (setting [3]) it was no more than 0.098 µM.

On to `CCNc1cc(F)cc2c1[nH]c1ncc(-c3cnc(OC4CCNC4)nc3)c(-n3ccc(C(F)(F)F)n3)c12` (centres unmarked) [Example 1.20, N-Ethyl-6-fluoro-3-(2-pyrrolidin-3-yloxypyrimidin-5-yl)-4-[3-(trifluoromethyl)pyrazol-1-yl]-9H-pyrido[2,3-b]indol-8-amine], for which the IC50 in the experiment with E. coli (BW25113) (BW25113, 16 h) is 1.48 µM; in experiment [1] (ATCC10031, 16 h), no more than 0.098 µM.

As to `CCNc1cc(F)cc2c1[nH]c1ncc(-c3cnc(O[C@@H]4CCNC4)nc3)c(-n3ccc(C(F)(F)F)n3)c12` [Example 1.55, N-ethyl-6-fluoro-3-[2-[(3R)-pyrrolidin-3-yl]oxypyrimidin-5-yl]-4-[3-(trifluoromethyl)pyrazol-1-yl]-9H-pyrido[2,3-b]indol-8-amine], the IC50 in the experiment on E. coli (BW25113) (BW25113, 16 h) is 1.03 µM; in experiment [1] (ATCC10031, 16 h) it was no more than 0.098 µM.

Consider `CCNc1cc(F)cc2c1[nH]c1ncc(-c3cnc(OC4CNC4)nc3)c(-n3ccc(C(F)(F)F)n3)c12` [Example 1.23, 3-[2-(Azetidin-3-yloxy)pyrimidin-5-yl]-N-ethyl-6-fluoro-4-[3-(trifluoromethyl)pyrazol-1-yl]-9H-pyrido[2,3-b]indol-8-amine], for which the figures for the IC50 (with E. coli (BW25113) (setting [2]); in experiment [1] (setting [3])) were 1.98 µM and no more than 0.098 µM, respectively.

`CCNc1cc(F)cc2c1[nH]c1ncc(-c3cnc4c(C#N)cnn4c3)c(-n3ccc(C(F)(F)F)n3)c12` [Example 1.59, 6-[8-(ethylamino)-6-fluoro-4-[3-(trifluoromethyl)pyrazol-1-yl]-9H-pyrido[2,3-b]indol-3-yl]pyrazolo[1,5-a]pyrimidine-3-carbonitrile]: the half-maximal inhibitory concentration (IC50) in the experiment on E. coli (BW25113) (setting [2]) stood at 1.87 µM; in experiment [1] (setting [3]), 0.368 µM.

With `CCNc1cc(F)cc2c1[nH]c1ncc(-c3cnc(OCC(C)(C)N)nc3)c(-n3ccc(C(F)(F)F)n3)c12` [Example 1.30, 3-[2-(2-Amino-2-methyl-propoxy)pyrimidin-5-yl]-N-ethyl-6-fluoro-4-[3-(trifluoromethyl)pyrazol-1-yl]-9H-pyrido[2,3-b]indol-8-amine], the IC50 was 1.56 µM in the experiment on E. coli (BW25113) (setting [2]) and 0.159 µM in experiment [1] (setting [3]).

As for `CNc1cc(F)cc2c1[nH]c1ncc(-c3cncc(C#N)c3)c(-n3cc(C(F)(F)F)cn3)c12` [Example 1.08, 5-[6-Fluoro-8-(methylamino)-4-[4-(trifluoromethyl)pyrazol-1-yl]-9H-pyrido[2,3-b]indol-3-yl]pyridine-3-carbonitrile], the results for the IC50 (in the experiment with E. coli (BW25113) (setting [2]); in experiment [1] (setting [3])) were 1.25 µM and 0.102 µM, respectively.
